From patent US20050276765A1, “Preventing skin damage” (priority 2004, published 2005)

What was measured:
mice ears = assay: Mouse ear thickness after a single UVB irradiation and topical application for five days
Method: Prior to the experiment, the thickness of mice ears (FVB strain, female, 7 weeks of age, n=3-4/group) was measured with a thickness gauge (Mitsutoyo Corp.). […] The following day, ear thickness of both ears was measured. This procedure was continued for five consecutive days.
In a second experiment, solution was applied to each ear after exposure to UVB irradiation. The following day, the thickness of both ears was measured. UVB irradiation was only applied once and solutions were administered a total of five times (once a day/consecutive five days).

hairless Skh-1 mice = assay: UVB-induced chronic skin damage: skin wrinkling score after 10 weeks; assay type: in vivo, mice (hairless Skh-1)
Method: Mice of groups 1 and 3 were exposed to UVB irradiation, using fluorescent lamps (Southern New England Ultraviolet). The height of the lamps was adjusted to deliver 0.35 mW/cm^2 at the dorsal skin surface of the mice. Samples were applied (100 μl) on the back of UVB irradiated and non-UVB irradiated mice. This procedure was repeated three times weekly for 10 weeks. […] The total cumulative dose of UVB was 6.54 J/cm^2.
After 10 weeks, skin wrinkling was evaluated by two independent persons according to five categories (0: no wrinkle; 1: slight wrinkle, 2: clear wrinkle, 3: strong wrinkle; 4: severe wrinkle).

back skin of mice = assay: Primary irritation score on clipped back skin of mice; assay type: in vivo, mice (FVB strain); details: for irritation category (0-4): 5 μl topical daily
Method: A third primary irritation experiment was performed. Back skin of mice (FVB strain, female, 7 weeks of age, n=3-4/group) was clipped of hair with an electric clipper and 5 μl of each solution was topically applied. The following day, irritation was evaluated according to five categories (0: no irritation, 1; slight irritation, 2:clear irritation, 3:strong irritation, 4:severe irritation) and 5 μl of each solution was topically applied. This procedure was continued for a total of five consecutive days.

In the case of Cn1c(=O)c2c(ncn2C)n(C)c1=O [caffeine], the “ear thickness compared to solvents (DMSO or acetone)” value (mice ears; 2% in DMSO or 1.2% in acetone, with or without UVB) is reported as “did not increase ear thickness”, the “primary irritancy (ear)” value (mice ears; concentration of 2% in DMSO or 1.2% in acetone) is reported as “did not have primary irritancy” and the UVB-induced wrinkle formation (hairless Skh-1 mice; 1.2% in acetone, topical, 10 weeks) is reported as “effective at reducing UVB-induced wrinkle formation”. For the same compound, the “skin wrinkling score, average” value (hairless Skh-1 mice; group 2: No UVB + 1.2% caffeine in acetone, 100 μl on back three times weekly, after 10 weeks, scale 0 no wrinkle to 4 severe wrinkle) was 0, the “irritation category (0-4)” value (back skin of mice; 0.5% caffeine in DMSO, day 0) was 0 and the “irritation category (0-4)” value (back skin of mice; 0.5% caffeine in DMSO, day 1) was 0. The “irritation category (0-4)” value (back skin of mice; 0.5% caffeine in DMSO, day 2) was 0, the “irritation category (0-4)” value (back skin of mice; 0.5% caffeine in DMSO, day 3) was 0 and the “irritation category (0-4)” value (back skin of mice; 0.5% caffeine in DMSO, day 4) was 0. The “irritation category (0-4)” value (back skin of mice; 0.5% caffeine in DMSO, day 5) was 0, the “irritation category (0-4)” value (back skin of mice; 0.5% caffeine in acetone, day 0) was 0 and the “irritation category (0-4)” value (back skin of mice; 0.5% caffeine in acetone, day 1) was 0. The “irritation category (0-4)” value (back skin of mice; 0.5% caffeine in acetone, day 2) was 0, the “irritation category (0-4)” value (back skin of mice; 0.5% caffeine in acetone, day 3) was 0 and the “irritation category (0-4)” value (back skin of mice; 0.5% caffeine in acetone, day 4) was 0. The “irritation category (0-4)” value (back skin of mice; 0.5% caffeine in acetone, day 5) was 0, the “irritation category (0-4)” value (back skin of mice; 1.2% caffeine in acetone, day 0) was 0 and the “irritation category (0-4)” value (back skin of mice; 1.2% caffeine in acetone, day 1) was 0. For the same compound, the “irritation category (0-4)” value (back skin of mice; 1.2% caffeine in acetone, day 2) was 0, the “irritation category (0-4)” value (back skin of mice; 1.2% caffeine in acetone, day 3) was 0 and the “irritation category (0-4)” value (back skin of mice; 1.2% caffeine in acetone, day 4) was 0. For the same compound, the “irritation category (0-4)” value (back skin of mice; 1.2% caffeine in acetone, day 5) was 0, the “irritation category (0-4)” value (back skin of mice; 2% caffeine in DMSO, day 0) was 0 and the “irritation category (0-4)” value (back skin of mice; 2% caffeine in DMSO, day 1) was 0. The “irritation category (0-4)” value (back skin of mice; 2% caffeine in DMSO, day 2) was 0, the “irritation category (0-4)” value (back skin of mice; 2% caffeine in DMSO, day 3) was 0 and the “irritation category (0-4)” value (back skin of mice; 2% caffeine in DMSO, day 4) was 0. The “irritation category (0-4)” value (back skin of mice; 2% caffeine in DMSO, day 5) was 0, the “irritation in mouse skin” value (back skin of mice; back skin, five consecutive days) was “did not cause irritation” and the “primary irritancy (back skin)” value (back skin of mice; concentration of 2% in DMSO and 1.2% in acetone) was “did not have primary irritancy”.
